Reference: US20060252116A1, “Icam-4 binding sites” (priority 2002, published 2006)
Ends that are not written are not given here.

Key:
Format in all cases: cell-based
[1] = system: HT1080 cell binding to murine ICAM-4Fc; experiment: Cell adhesion assay: peptide inhibition of HT1080 cell binding to murine ICAM-4Fc; settings: FIG. 14, murine ICAM-4Fc coated at 5 μg/ml, peptides 500 μM each, mean of two assays
Method: (§1) Cell adhesion assays were performed as described in Spring et al. 2001 (supra). Immulon4 96 well plates (Dynex Technologies, Billingshurst, United Kingdom) were coated with 1 μg/well goat-antihuman-Fc (Sigma, Poole, United Kingdom) for 24 hours at 4° C., washed three times with PBS and coated with an Fc fusion ICAM-4 protein for 18 hours at 4° C. before blocking with 0.4% BSA PBS for 2 hours at 22° C. Cells were labelled with 10 μg/ml 2′,7′-bis-(2-carboxyethyl)-5-(and-6-) carboxyfluorescein acetoxymethyl ester in assay buffer (IMEM, 2 mM EGTA, 10 μg/ml human ivIgG) for 15 minutes at 37° C. HT1080 cells were activated with 80 μM phorbol myristate acetate prior to both cells being washed with assay buffer containing 2 mM Mn^2+. Cells, at 5×10^4 cells per well, were added to the ICAM-4Fc-coated plates for 30 minutes at 37° C., prior to being given repeated washes in assay buffer and read on a fluorescence microplate reader (excitation 485 nm, emission 530 nm). The percentage of bound cells was calculated after each wash. […] In peptide inhibition studies the appropriate ICAM-4Fc coating concentration for each cell line was pre-determined by titration of ICAM-4Fc and the lowest concentration at which maximal binding was achieved was used to coat the plates

[2] = system: HT1080 cell binding to human ICAM-4Fc; experiment: Cell adhesion assay: peptide inhibition of HT1080 cell binding to human ICAM-4Fc
Method: as §1

[3] = system: HEL cell binding to murine ICAM-4Fc; experiment: Cell adhesion assay: peptide inhibition of HEL cell binding to murine ICAM-4Fc; settings: FIG. 12, murine ICAM-4Fc coated at 5 μg/ml, peptides 500 μM each, mean of two assays
Method: Cell adhesion assays were performed as described in Spring et al. 2001 (supra). Immulon4 96 well plates (Dynex Technologies, Billingshurst, United Kingdom) were coated with 1 μg/well goat-antihuman-Fc (Sigma, Poole, United Kingdom) for 24 hours at 4° C., washed three times with PBS and coated with an Fc fusion ICAM-4 protein for 18 hours at 4° C. before blocking with 0.4% BSA PBS for 2 hours at 22° C. Cells were labelled with 10 μg/ml 2′,7′-bis-(2-carboxyethyl)-5-(and-6-) carboxyfluorescein acetoxymethyl ester in assay buffer (IMEM, 2 mM EGTA, 10 μg/ml human ivIgG) for 15 minutes at 37° C. HT1080 cells were activated with 80 μM phorbol myristate acetate prior to both cells being washed with assay buffer containing 2 mM Mn^2+. Cells, at 5×10^4 cells per well, were added to the ICAM-4Fc-coated plates for 30 minutes at 37° C., prior to being given repeated washes in assay buffer and read on a fluorescence microplate reader (excitation 485 nm, emission 530 nm). The percentage of bound cells was calculated after each wash. Peptide inhibition was performed by incubating the cells with 500 μM peptide at 0° C. for 15 minutes ahead of their addition, still in the presence of 500 μM peptide to the ICAM-4Fc coated plates. In peptide inhibition studies the appropriate ICAM-4Fc coating concentration for each cell line was pre-determined by titration of ICAM-4Fc and the lowest concentration at which maximal binding was achieved was used to coat the plates

[4] = system: HEL cell binding to human ICAM-4Fc; experiment: Cell adhesion assay: peptide inhibition of HEL cell binding to human ICAM-4Fc; settings: for input cells bound expressed as a percentage of binding to ICAM-4Fc in the absence of peptides: FIG. 8, human ICAM-4Fc coated at 5 μg/ml, peptides 500 μM each, mean of three assays; for input cells bound expressed as a percentage of binding to human ICAM-4Fc in the absence of peptides: FIG. 16, human ICAM-4Fc coated at 2.5 μg/ml, peptides 750 μM each, EDTA 2 mM, mean of two assays
Method: as §1

[5] = system: neutrophil adhesion to ICAM-4; experiment: Peptide and antibody inhibition of neutrophil adhesion to ICAM-4; settings: FIG. 20; 2.5 μg/ml ICAM-4; 10 μg/ml blocking antibodies; peptides 500 μM
Method: Utilising blocking β integrin subunit antibodies and our blocking ICAM-4 peptides (i.e., SEQ ID NOs: 9, 10, 11 and 13—see Example 1) in a microplate neutrophil adhesion assay. Neutrophils were purified from buffy coats (obtained from the National Blood Service, Bristol, UK) as described in Henderson et al. (1987, Biochem. J. 246: 325-329). Cell adhesion assays were performed as described in Example 1 above. Immulon-4 96 well plates (Dynes Technologies, Billingshurst, UK) were coated with 1 μg/well protein A (Sigma, Poole, UK) for 24 hours at 4° C., washed three times with PBS and coated with 0.125 μg/well Fc fusion ICAM-4 protein (ICAM-4Fc) for 18 hours at 4° C. before blocking with 0.4% BSA PBS for 2 hours at 22° C. Neutrophils were labelled with 10 μg/ml 2′,7′-bis-(2-carboxyethyl)-5-(and-6-)carboxyfluorescein acetoxymethyl ester (Sigma, Poole, UK) in assay buffer (Iscoves modified Eagle medium, 2 mM EGTA, 0.1% BSA for 15 minutes at 37° C. Neutrophils were washed with assay buffer containing 2 mM Mn^2+. Neutrophils, at 5×10^5 cells per well, were added to the ICAM-4Fc-coated plates for 10 minutes at 37° C., prior to being cyclically read on a fluorescence microplate reader (excitation 485 nm, emission 530 nm) and washed in assay buffer. The percentage of bound cells was calculated after each wash. […]

[6] = system: erythroblast adhesion to ICAM-4; experiment: Peptide inhibition of erythroblast adhesion to ICAM-4; settings: FIG. 19; 5 μg/ml ICAM-4; 5 μg/ml TS2/16 beta 1 activating antibody; peptides 500 μM
Method: We have utilised the blocking ICAM-4 peptides (i.e., SEQ ID NOs: 9, 10, 11 and 13—see Example 1) in order to inhibit the adhesion of day 4 erythroblasts to ICAM-4 (see FIG. 19). Erythroblast cultures were initiated from CD34 positive cells purified from pooled buffy coat residues (obtained from the National Blood Service, Bristol, UK) and maintained as described in Southcott et al. (1999, Blood 93: 4425-4435). Cell adhesion assays were performed as described in Example 1 above. Immulon-4 96 well plates (Dynes Technologies, Billingshurst, UK) were coated with 1 μg/well goat-antihuman-Fc (Sigma, Poole, UK) for 24 hours at 4° C., washed three times with PBS and coated with 0.25 μg/well Fc fusion ICAM-4 protein (ICAM-4Fc) for 18 hours at 4° C. before blocking with 0.4% BSA PBS for 2 hours at 22° C. Erythroblasts were labelled with 10 μg/ml 2′,7′-bis-(2-carboxyethyl)-5-(and-6-)carboxyfluorescein acetoxymethyl ester (Sigma, Poole, UK) in assay buffer (Iscoves modified Eagle medium, 2 mM EGTA, 0.1% BSA, 10 μg/ml Immune globulin intravenous (human) (Cutter Biological, Newbury, Berks, UK)) for 15 minutes at 37° C. Erythroblasts were washed with assay buffer containing 2 mM Mn^2+. Erythroblasts, at 5×10^4 cells per well, were added to the ICAM-4Fc-coated plates for 30 minutes at 37° C., prior to being cyclically read on a fluorescence microplate reader (excitation 485 nm, emission 530 nm) and washed in assay buffer. The percentage of bound cells was calculated after each wash Peptide inhibition was performed by incubating the cells with 500 μM peptide and 5 μg/ml TS2/16 (beta 1 activating antibody (IBGRL) at 0° C. for 15 minutes before their addition to the ICAM-4Fc coated plates.

## O=C(O)CN(CCN(CC(=O)O)CC(=O)O)CC(=O)O [EDTA, reference compound]
[1]
  input cells bound expressed as a percentage of binding to murine ICAM-4Fc in the absence of peptides: 1%
[2]; FIG. 10, human ICAM-4Fc coated at 7.5 μg/ml, peptides 500 μM each, mean of three assays
  input cells bound expressed as a percentage of binding to human ICAM4Fc in the absence of peptides: 6%
[2]; FIG. 18, human ICAM-4Fc coated at 5 μg/ml, peptides 750 μM each, EDTA 2 mM, mean of two assays
  input cells bound expressed as a percentage of binding to human ICAM-4Fc in the absence of peptides: 10%
[3]
  input cells bound expressed as a percentage of binding to murine ICAM-4Fc in the absence of peptides: 8%
[4]
  input cells bound expressed as a percentage of binding to ICAM-4Fc in the absence of peptides: 1%
  input cells bound expressed as a percentage of binding to human ICAM-4Fc in the absence of peptides: 26%

## aWssLahcl (AWSSLAHCL; not fully specified (some residues)) [aWssLahcl peptide]
[5]
  effect on adhesion between neutrophils and ICAM-4: inhibit this interaction
[4]
  input cells bound expressed as a percentage of binding to human ICAM-4Fc in the absence of peptides: 50%
[6]
  effect on adhesion of day 4 erythroblasts to ICAM-4: inhibit adhesion

## rqgktlrgp (RQGKTLRGP; not fully specified (some residues); printed as rqgktlrgp) [rqgktlrgp peptide, reference compound]
[3]
  input cells bound expressed as a percentage of binding to murine ICAM-4Fc in the absence of peptides: 94%
[4]
  input cells bound expressed as a percentage of binding to ICAM-4Fc in the absence of peptides: 107%
  input cells bound expressed as a percentage of binding to human ICAM-4Fc in the absence of peptides: 105%
[6]
  effect on adhesion of day 4 erythroblasts to ICAM-4: had no effect

## svpFWVrms (SVPFWVRMS; not fully specified (residues 1, 2, 3, 7, 8, 9)) [svpFWVrms peptide]
[3]
  input cells bound expressed as a percentage of binding to murine ICAM-4Fc in the absence of peptides: 67%
[4]
  input cells bound expressed as a percentage of binding to ICAM-4Fc in the absence of peptides: 61%
  input cells bound expressed as a percentage of binding to human ICAM-4Fc in the absence of peptides: 64%
[6]
  effect on adhesion of day 4 erythroblasts to ICAM-4: had no effect

## tRwATSRit (TRWATSRIT; not fully specified (residues 1, 3, 8, 9)) [tRwATSRit peptide]
[5]
  effect on adhesion between neutrophils and ICAM-4: inhibit this interaction
[3]
  input cells bound expressed as a percentage of binding to murine ICAM-4Fc in the absence of peptides: 58%
[4]
  input cells bound expressed as a percentage of binding to ICAM-4Fc in the absence of peptides: 58%
  input cells bound expressed as a percentage of binding to human ICAM-4Fc in the absence of peptides: 58%
[6]
  effect on adhesion of day 4 erythroblasts to ICAM-4: inhibit adhesion
